Numbering of substitutions follows the chain as printed. Like-named read-outs stand apart in the source and are kept apart here.
Experiments:
[1] = biological target: T1, hAR (human androgen receptor) (Homo sapiens, UniProt P10275); assay: Competitive hAR binding assay with 3H-DHT tracer
T1 construct: made in house; host or cells: baculovirus/Sf9 insect cells (crude extract)
T1 sequence (P10275 1-920): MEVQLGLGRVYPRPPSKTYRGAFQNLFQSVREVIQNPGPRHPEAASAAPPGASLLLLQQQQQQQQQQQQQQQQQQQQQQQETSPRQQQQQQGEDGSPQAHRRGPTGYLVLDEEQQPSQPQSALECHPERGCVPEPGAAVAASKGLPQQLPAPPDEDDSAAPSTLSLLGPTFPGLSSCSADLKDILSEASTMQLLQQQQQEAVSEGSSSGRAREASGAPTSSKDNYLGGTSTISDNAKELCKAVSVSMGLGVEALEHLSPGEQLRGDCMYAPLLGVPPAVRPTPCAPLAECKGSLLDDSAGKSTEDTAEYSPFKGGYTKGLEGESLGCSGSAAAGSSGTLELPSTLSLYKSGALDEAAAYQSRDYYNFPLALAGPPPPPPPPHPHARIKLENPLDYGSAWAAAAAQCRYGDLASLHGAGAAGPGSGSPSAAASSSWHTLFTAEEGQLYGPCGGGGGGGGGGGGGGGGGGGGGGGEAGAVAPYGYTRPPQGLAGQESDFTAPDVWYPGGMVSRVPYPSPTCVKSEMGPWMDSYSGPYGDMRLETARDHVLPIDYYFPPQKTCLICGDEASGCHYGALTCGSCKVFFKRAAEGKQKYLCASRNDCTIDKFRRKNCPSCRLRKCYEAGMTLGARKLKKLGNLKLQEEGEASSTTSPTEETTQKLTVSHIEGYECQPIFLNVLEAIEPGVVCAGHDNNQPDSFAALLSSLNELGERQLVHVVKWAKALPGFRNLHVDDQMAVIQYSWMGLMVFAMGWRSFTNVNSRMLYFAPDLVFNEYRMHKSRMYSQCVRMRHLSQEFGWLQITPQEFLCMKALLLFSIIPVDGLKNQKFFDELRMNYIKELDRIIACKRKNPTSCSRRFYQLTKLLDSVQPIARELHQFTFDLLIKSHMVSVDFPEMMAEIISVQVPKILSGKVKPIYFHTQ
Method: The description below describes how the assay was carried out.
Competitive binding analysis was performed on baculovirus/Sf9 generated hAR extracts in the presence or absence of different concentrations of test agent and a fixed concentration of ^3H-dihydrotestosterone (3H-DHT) as tracer. […] Subsequently, the binding reactions are washed three times to completely remove excess unbound ^3H-DHT. hAR bound ^3H-DHT levels are determined in the presence of compounds (i.e. competitive binding) and compared to levels bound when no competitor is present (i.e. maximum binding). Compound binding affinity to the hAR is expressed as the concentration of compound at which one half of the maximum binding is inhibited.

[2] = biological target: T2, androgen receptor in MDA-MB453-MMTV clone 54-19 cells (Homo sapiens, UniProt P10275); assay: AR antagonist cell assay (MMTV-luciferase reporter); type: cell-based
T2 sequence (P10275 1-920 Q868H): T1 sequence (P10275 1-920) with Q868H
Method: The compounds ability to antagonize the effects of androgen on the androgen receptor were determined in a whole cell assay as described immediately below.
This cell line is a stable transfected cell line with MDA-MB453 cell background (a human breast tumor cell line expressing androgen receptor). A MMTV minimal promoter containing ARE was first cloned in front of a firefly luciferase reporter gene. Then the cascade was cloned into transfection vector pUV120puro. […] Puromycin resistant stable cell line was selected.
Plating medium: DMEM (phenol red free), 10% charcoal treated HyClone serum, 1% L-glutamine
Assay medium: DMEM (phenol red free), 1% charcoal treated HyClone serum, 1% L-glutamine, and 1% penicillin/streptomycin
Assay procedure: • 1. Cells are maintained in culture medium, splitting cells when they reach 80-90% confluence • 2. To test compounds, 10,000 cells/well are plated to opaque 96 cell culture plate in 100 ul/well plating medium, culture for overnight at 37° C. in cell culture incubator • 3. […] Add 10 ul/well freshly prepared DHT (final concentration at […]) to each well, incubate at 37° C. for 17 hr (overnight) • 5.
The results are reported as the mean of multiple tests as described below (the numbers of tests are indicated in the footnote). N.D. denotes that the compound was not tested.

[3] = baculovirus/Sf9 hAR extract, 1 nM 3H-DHT, one hour at 4° C, mean of multiple tests, read-out: AR Binding IC50
[4] = MDA-MB453-MMTV clone 54-19, inhibition of DHT induced luciferase, 17 hr; mean of multiple tests; read-out: AR Cell IC50
[5] = read-out: AR Cell IC50; MDA-MB453-MMTV clone 54-19, inhibition of DHT induced luciferase, 17 hr; mean of multiple tests

Structure (SMILES)	IC50 [1, 3] [nM]	IC50 [2, 4] [nM]	IC50 [1] [nM]	IC50 [2, 5] [nM]
CC(=O)c1cc(F)ccc1Oc1ccc(C#N)c(C(F)(F)F)c1 [Example 120, 4-(2-Acetyl-4-fluoro-phenoxy)-2-trifluoromethyl-benzonitrile]	222	367		
CCC(C)c1ccccc1Oc1ccc(C#N)c(Cl)c1 (stereo not drawn) [Example 48, 4-(2-sec-Butyl-phenoxy)-2-chloro-benzonitrile]	184	> 1000		
CC(C)Oc1ccccc1Oc1ccc(C#N)c(C(F)(F)F)c1 [Example 110, 4-(2-Isopropoxy-phenoxy)-2-trifluoromethyl-benzonitrile]	218	206		
C=CCc1cccc(C)c1Oc1ccc(C#N)c(Cl)c1 [Example 44, 4-(2-Allyl-6-methyl-phenoxy)-2-chloro-benzonitrile]		282	79	
N#Cc1ccc(Oc2ccc(F)cc2)cc1Cl [Example 52, 2-Chloro-4-(4-fluoro-phenoxy)-benzonitrile]	152	261		
N#Cc1ccc(Oc2ccc(F)cc2F)cc1Cl [Example 36, 2-Chloro-4-(2,4-difluoro-phenoxy)-benzonitrile]		144	52	
Cc1cc(C)c(Oc2ccc(C#N)c(Cl)c2)c(C)c1 [Example 50, 2-Chloro-4-(2,4,6-trimethyl-phenoxy)-benzonitrile]		214	22	
N#Cc1ccc(Oc2ccccc2C(F)(F)F)cc1C(F)(F)F [Example 108, 2-Trifluoromethyl-4-(2-trifluoromethyl-phenoxy)-benzonitrile]		> 1000	57	
N#Cc1ccc(Oc2ccccc2C#N)cc1Cl [Example 65, 2-Chloro-(2-cyano-phenoxy)-benzonitrile]			14	0.32
COc1cccc(OC)c1Oc1ccc(C#N)c(Cl)c1 [Example 38, 2-Chloro-4-(2,6-dimethoxy-phenoxy)-benzonitrile]	249			19
N#Cc1ccc(Oc2ccc(F)cc2F)c(Cl)c1 [Example 25, 3-Chloro-4-(2,4-difluoro-phenoxy)-benzonitrile]	371	792		
N#Cc1ccc(Oc2ccccc2-c2ccccc2)cc1Cl [Example 69, 4-(Biphenyl-2-yloxy)-2-chloro-benzonitrile]	159	> 1000		
COc1cc(Oc2ccccc2C)ccc1C#N [Example 117, 2-Methoxy-4-o-tolyloxy-benzonitrile]	53	26		
N#Cc1ccc(Oc2ccccc2C2CCCC2)cc1C(F)(F)F [Example 104, 4-(2-Cyclopentyl-phenoxy)-2-trifluoromethyl-benzonitrile]	228	592		
N#Cc1ccc(Oc2ccc(C#N)c(Cl)c2)cc1 [Example 67, 2-Chloro-(4-cyano-phenoxy)-benzonitrile]	230	340		
CC(C)Oc1ccccc1Oc1ccc(C#N)c(Cl)c1 [Example 63, 2-Chloro-4-(2-isopropoxy-phenoxy)-benzonitrile]			70	4
N#Cc1ccc(Oc2c(F)cccc2F)cc1C(F)(F)F [Example 121, 4-(2,6-Difluoro-phenoxy)-2-trifluoromethyl-benzonitrile]			63	17
COc1ccc(Oc2ccc(C#N)c(C(F)(F)F)c2)c(C(C)=O)c1 [Example 90, 4-(2-Acetyl-4-methoxy-phenoxy)-2-trifluoromethyl-benzonitrile]	204	477		
CSc1ccc(Oc2ccc(C#N)c(Cl)c2)c(C)c1 [Example 59, 2-Chloro-4-(2-methyl-4-methylsulfanyl-phenoxy)-benzonitrile]	268	175		
COc1cccc(Oc2ccc(C#N)c(Cl)c2)c1OC [Example 54, 2-Chloro-4-(2,3-dimethoxy-phenoxy)-benzonitrile]	157			26
Cc1cc(C)c(Oc2ccc(C#N)cc2Cl)c(C)c1 [Example 15, 3-Chloro-(2,4,6-trimethyl-phenoxy)-benzonitrile]		> 1000	16	
COc1ccccc1Oc1ccc(C#N)cc1Cl [Example 10, 3-Chloro-4-(2-methoxy-phenoxy)-benzonitrile]		319	29	
CCCc1ccccc1Oc1ccc(C#N)cc1Cl [Example 17, 3-Chloro-4-(2-propyl-phenoxy)-benzonitrile]	102	861		
Cc1cccc(C)c1Oc1ccc(C#N)cc1Cl [Example 16, 3-Chloro-4-(2,,6-dimethyl-phenoxy)-benzonitrile]		161	16	
CCOc1cc(C)ccc1Oc1ccc(C#N)c(Cl)c1 [Example 57, 2-Chloro-4-(2-ethoxy-4-methyl-phenoxy)-benzonitrile]		> 1000	7	
N#Cc1ccc(Oc2ccccc2C(F)(F)F)c(Cl)c1 [Example 20, 3-Chloro-4-(2-trifluoromethyl-phenoxy)-benzonitrile]	253			51
N#CCCc1ccc(Oc2ccc(C#N)c(Cl)c2)cc1 [Example 46, 2-Chloro-4-[4-(2-cyano-ethyl)-phenoxy]-benzonitrile]	304	197		
Cc1ccc(C(C)C)c(Oc2ccc(C#N)c(Cl)c2)c1 [Example 49, 2-Chloro-4-(2-isopropyl-5-methyl-phenoxy)-benzonitrile]		784	79	
N#Cc1ccc(Oc2ccccc2C(N)=O)cc1Cl [Example 8, 2-(3-Chloro-4-cyano-phenoxy)-benzamide]	222	> 1000		
COc1ccc(C)cc1Oc1ccc(C#N)c(Cl)c1 [Example 33, 2-Chloro-4-(2-methoxy-5-methyl-phenoxy)-benzonitrile]	232			42

Source: US20090105349A1, “ANDROGEN MODULATORS” (WARNER-LAMBERT COMPANY LLC, priority 2004, published 2009)
